{
  "source": "patent US12156912B2",
  "about": "“Methods and compositions for inhibiting diseases of the central nervous system” (Board of Regents of the University of Nebraska, priority 2012, dated 2024)",
  "note": "Square brackets hold non-standard residues; d marks the D form. Ends that are not written are not given here. Tyr(3-NO2) = N[C@@H](Cc1ccc(O)c([N+](=O)[O-])c1)C(=O)O",
  "data": [
    {"test_system": "splenocytes of mice immunized with N-4YSyn", "experiment": "3H-thymidine in vitro proliferation assay of splenocytes stimulated with antigen or test peptide", "assay_type": "cell-based, mice (C57BL/6J)", "settings": "splenocytes from N-4YSyn/CFA immunized mice; 30 μg/ml antigen or peptide, 5 days; vs media control; no response in PBS immunized mice", "procedure": "B6 (H-2^b) mice were immunized with PBS or 50 μg of N-4YSyn (nitrated C-terminal 40 amino acid α-Syn fragment) in complete Freund's adjuvant (CFA) administered subcutaneously (s.c.). Seven days after primary immunization, mice were boosted with another 50 μg of antigen emulsified in IFA (Sigma-Aldrich). Seven days following their final immunizations, donor mice were sacrificed and single cell suspensions were prepared from the spleen.\nSamples of pooled splenocytes were tested for their proliferative capacity by ^3H-thymidine incorporation after stimulation with either immunizing antigen or test peptide. Splenocytes were plated at a density of 2×10^6 cells/ml complete RPMI tissue culture media (RPMI 1640 supplemented with 10% fetal bovine serum (FBS), 2 mM L-glutamine, 10 mM HEPES, 1 mM sodium pyruvate, 1× nonessential aa, 55 μM 2-mercaptoethanol, 100 U/ml penicillin, and 100 μg/ml streptomycin (Mediatech Inc., Herndon, VA)). Splenocytes from PBS or N-4YSyn immunized mice were stimulated with 0 or 30 μg/ml of immunizing antigen N-4YSyn or 30 μg/ml of the non-nitrated or nitrated peptide indicated, and cultured at 37° C. for 5 days. Cells were pulsed with […] ^3H-thymidine/well for the final 18 hours of culture, harvested onto glass fiber plates, and counted by β-scintillation spectrometry (TopCount, Packard-PerkinElmer Instruments, Wellesley, MA).\nTo test immune responses to particular epitopes within N-α-Syn, mice were immunized with N-4YSyn or PBS emulsified in complete Freund's adjuvant (CFA). Seven days following the initial immunization, mice were boosted with their respective immunogens emulsified in incomplete Freund's adjuvant (IFA). Seven days later, mice were sacrificed and splencoytes were tested for antigen-specific T cell proliferative responses to N-4YSyn or peptide epitope (nitrated or non-nitrated; Table 1).", "values": [
      {"sequence": "GILEDMPVDPGSEAY (GILEDMPVDPGSEA[Tyr(3-NO2)]; listed as Mus musculus) [Peptide 23, murine α-synuclein positions 111-125, nitrated tyrosine]", "proliferative response (3H-thymidine incorporation)": "significant proliferative response"},
      {"sequence": "GSEAYEMPSEEGYQD (GSEA[Tyr(3-NO2)]EMPSEEG[Tyr(3-NO2)]QD; listed as Mus musculus) [Peptide 25, murine α-synuclein positions 121-135, nitrated tyrosines]", "proliferative response (3H-thymidine incorporation)": "significant proliferative response"},
      {"sequence": "GYPQEGILEDMPVDP (G[Tyr(3-NO2)]PQEGILEDMPVDP; listed as Mus musculus) [Peptide 22, murine α-synuclein positions 106-120, nitrated tyrosine]", "proliferative response (3H-thymidine incorporation)": "significant proliferative response"},
      {"sequence": "MPVDPGSEAYEMPSE (MPVDPGSEA[Tyr(3-NO2)]EMPSE; listed as Mus musculus) [Peptide 24, murine α-synuclein positions 116-130, nitrated tyrosine]", "proliferative response (3H-thymidine incorporation)": "significant proliferative response"}
    ]}
  ]
}
